Results taken from patent US5985824A, “Methods and compositions for treating cystic fibrosis” (priority 1997, dated 1999).
“Also recorded” adds a separate entry of the source.

How the values were obtained:
[1] = test system: ΔF508-CFTR (C127-ΔF508-low cells); assay: SPQ halide efflux assay, cAMP-stimulated Cl- channel activity, C127-ΔF508-low cells; type: cell-based; conditions: C127-ΔF508-low cells; for cAMP-stimulated change in SPQ fluorescence / Cl- channel activity, in words: DSG 10-100 μg/ml, sodium butyrate 5 mM 24 h, spermidine 5 μg/ml 72 h
Protocol: (§1) The cAMP-dependent CFTR Cl^- channel activity was assessed using the halide-sensitive fluorophore 6-methoxy-N-(3-sulfopropyl)-quinolinium (SPQ) essentially as described previously (Cheng et al., (1995), supra.; Marshall et al., supra.). Briefly, the cells were treated with different amounts of DSG for the times specified. At the end of the treatment period, the cells were loaded with SPQ by hypotonic shock for 4 min at room temperature. SPQ fluorescence initially was quenched by incubating the cells for up to 30 min in a NaI buffer (135 mM NaI, 2.4 mM K2 HPO4, 0.6 mM KH2 PO4, 1 mM MgSO4, 1 mM CaSO4, 10 mM dextrose, and 10 mM N-2 hydroxyethylpiperazine-N'2-ethanesulfonic acid, pH 7.4). After measuring the baseline fluorescence (Fo) for 2 min., the NaI solution was replaced with one containing 135 mM NaNO3, and fluorescence was measured for another 16 min. Forskolin (20 μM) and 3-isobutyl-1-methyl-xanthine (IBMX) (100 μM) were added 5 min after the anion substitution to increase intracellular levels of cAMP.
(§2) An increase in halide permeability is reflected by a more rapid increase in SPQ fluorescence. It is the rate of change rather than the absolute change in signal that is the important variable in evaluating anion permeability. Differences in absolute levels reflect quantitative differences between groups in SPQ loading, size of cells, or number of cells studied. The data are presented as means± SE of fluorescence at time t (Ft) minus the baseline fluorescence (Fo, the average fluorescence measured in the presence of I^- for 2 min. before ion substitution) and are representative of results obtained under each condition.
For each experiment, between 50 to 100 cells were examined on a given day and studies under each condition were repeated on at least two days. For each experiment, the responses were compared with those obtained with control or untreated cells. […] Under the conditions specified above, control cells were unresponsive to added cAMP agonists. There was a broad spectrum in the rate of change in SPQ fluorescence observed with responsive cells. Normally, cells were scored as responsive if they generated a minimum of a […] change in the rate of increase in SPQ fluorescence following stimulation with cAMP agonists. Because the response was heterogenous, the data shown are for the 10% of cells in each experiment showing the greatest response.
A bovine-papilloma virus based eukaryotic expression vector (pBPV-CFTR-ΔF508) containing the gene for ΔF508 CFTR and neomycin resistance were transfected into C127 cells. The C127 cells are murine mammary cells which were obtained from ATCC (#CRL 1616). The expression of the mutant ΔF508 protein and neomycin was driven using a metallothionein promoter. Following transfection, clonal cells resistant to G418 were isolated and cells expressing the mutant ΔF508 protein were subsequently identified using antibodies specific for CFTR (mAb-13-1). The cells expressing the mutant ΔF508 CFTR protein were maintained in Dulbecco's modified eagle media (DMEM) supplemented with glutamine and fetal calf serum.
C127-ΔF508-low (mouse mammary tumor) is a recombinant cell line stably transfected with the cDNA encoding the mutant ΔF508-CFTR (Cheng et al. (1995), supra.; Marshall et al. (1994), J. Biol. Chem. 269: 2987-2995). […] C127-mock is a cell line that has been stably transfected with the backbone of the expression vector used to generate C127-ΔF508-low (Cheng et al. (1995), supra.). LLCPK1 -ΔF508 (pig kidney epithelial) is a recombinant cell line stably expressing low levels of the mutant ΔF508-CFTR protein (Marshall et al., supra.). The details of the generation, characterization and routine propagation of these cell lines has been described (Cheng et al. (1995), supra.; Marshall et al., supra.).
Cells were treated with up to 100 μg/ml of DSG for up to 72 h. Concentrations of DSG >50 μg/ml were toxic to most of the cell types tested. […]

[2] = test system: ΔF508-CFTR; conditions: recombinant cells; Cheng et al. (1995); cited from earlier work
[3] = test system: ΔF508-CFTR (IBE-1 cells); conditions: CFTR vs ORCC; Cliff and Frizzel, Schwiebert et al.; cited from earlier work
[4] = test system: ΔF508-CFTR (IBE-1 cells); assay: whole cell patch-clamp analysis of IBE-1 cells; type: cell-based, human; conditions: 200 μM extracellular DPC, n=4, DSG-treated IBE-1 cells
Protocol: The bath (extracellular) solution contained: 140 mM N-methyl-Dglucamine (NMDG), 2 mM CaCl2, 1 mM MgCl2, 0.1 mM CdCl2, 10 mM HEPES, 4 mM CsCl, and 10 mM glucose, pH 7.4. These solutions were designed so as to study only currents flowing through Cl^- channels, since Cl^- was the only significant permeant ion in the solutions. Furthermore, Ca^2+ -activated Cl^- currents were minimized by inclusion of 10 mM EGTA in the intracellular solution and 100 μM of Cd^2+ in the extracellular bath. K^+ currents were minimized by including 20 mM TEA in the intracellular solution. Aspartate was used as the replacement anion in experiments in which extracellular Cl^- concentration was changed. Forskolin (10 μM), IBMX (100 μM), 8-(4-chlorophenylthio)-cAMP (cpt-cAMP, 200 μM), diphenylamine carboxylic acid (DPC, 200 μM), UTP (100 μM), and ionomycin (1 μM) were added to the bath solutions as indicated. Current recordings were made from the same cells before, during, and after exposure to the solutions containing the different agonists or inhibitors. All experiments were performed at room temperature (22° C.). Currents were filtered at 2 kHz. Data acquisition and analysis were performed using the PCLAMP 5.5.1 software (Axon Instruments, Foster City, Calif.).
In all of the successfully patched CF IBE-1 cells from 6 separate coverslips no activation of whole cell currents in response to forskolin (10 μM) plus IBMX (100 μM) or cpt-cAMP (200 μM) was detected (FIG. 10A and 10B), indicating no endogenous CFTR channel activity in these cells. In contrast, in 7 out of 19 successful patched cells from 19 separate coverslips treated with DSG (10 μM) for 48 to 72 hrs. a significant activation of whole cell currents was observed. As all the other cells, the holding potential was 0 m, which inactivated the voltage-gated Na^+ and Ca^++ channels. After addition of 200 μM cpt-cAMP to the bath solution, voltage steps from the holding potential to between -100 mV and 80 mV in 20 mV increments activated whole cell currents. In these experiments, the intracellular and extracellular solutions were designed to study only current flowing through Cl^- channels, since Cl^- is the only significant permeant ion in solution. Ca^++ and K^+ currents were minimized by 100 μM of extracellular Cd^++ and 20 mM of intracellular TEA respectively. Furthermore, the currents were ascertained to be Cl^- currents from change in the reversal potential which was shifted from 1.1±1.5 to 47.3±6.1 mV by reducing extracellular Cl^- from 150 mM to 20 mM.
It is highly unlikely that Ca^++ -activated Cl^- was recorded in these experiments because of the presence of 10 mM intracellular EGTA and 100 µM extracellular Cd^++. […] Special attention was paid to detect possible contribution of the outwardly rectifying Cl^- channel (ORCC) to the whole cell currents. Because of a possible upregulatory role of CFTR, ORCC can be activated in normal but not in CF airway epithelial cells (Hwang et al. (1989), supra.; Li et al. (1988), Nature 331: 358-360; Morris and Frizzel (1993); Am. J. Physiol.; Schwiebert et al. (1994), Am. J. Physiol.).

[5] = test system: CFTR; conditions: Yang et al. (1997); cited from earlier work
[6] = test system: ΔF508-CFTR (JME/CF15 cells); assay: SPQ assay, cAMP-stimulated Cl- channel activity, JME/CF15 cells; type: cell-based, human; conditions: 72 h
Protocol: as §1, §2
For each experiment, between 50 to 100 cells were examined on a given day and studies under each condition were repeated on at least two days. […] There was a broad spectrum in the rate of change in SPQ fluorescence observed with responsive cells. Normally, cells were scored as responsive if they generated a minimum of a […] change in the rate of increase in SPQ fluorescence following stimulation with cAMP agonists. […]

Molecule: CCCC(=O)[O-].[Na+] [sodium butyrate]
- cells generating a measurable response ([1]; SPQ, average of 5 experiments): 90%
- cAMP-stimulated change in SPQ fluorescence / Cl- channel activity, in words [1]: generated cAMP-stimulated halide efflux
- effect on ΔF508-CFTR expression / location, in words [2]: overexpression of ΔF508 in recombinant cells; also recorded: results in synthesis of detectable amounts of band C-CFTR; also recorded: capable of effecting the presence of ΔF508-CFTR at the plasma membrane

Molecule: O=C(O)c1ccccc1Nc1ccccc1 [DPC, diphenylamine carboxylic acid]
- selectivity of inhibition [3]: specifically inhibit CFTR but not ORCC
- reduction of whole cell currents [4]: 92±4%

Molecule: calyculin
- activity of CFTR Cl channels at the cell surface [5]: enhance the activity of CFTR

Molecule: O=c1c(-c2ccc(O)cc2)coc2cc(O)cc(O)c12 [genistein]
- activity of CFTR Cl channels at the cell surface [5]: enhance the activity of CFTR

Molecule: NCCCCNCCCN [spermidine]
- cAMP-stimulated change in SPQ fluorescence / Cl- channel activity, in words [1]: No measurable cAMP-stimulated Cl^- channel activity was detected
- cAMP-stimulated Cl- channel activity, in words [6]: not replicated
